Reference: patent publication US10584128B2, “Bicyclic dihydropyrimidine-carboxamide derivatives as Rho-Kinase inhibitors” (CHIESI FARMACEUTICI S.p.A., priority 2016, dated 2020)

Assays:
[1] = target: Rho kinase 1 (Homo sapiens, UniProt Q13464); assay: In vitro Rho kinase inhibitory activity assay (ADP-Glo kit, Myelin Basic Protein substrate); format: biochemical; conditions: 10 μM ATP, 25° C., read-out: ROCK1 inhibitory activity (Ki, range of activity)
Description: (§1) The effectiveness of compounds of the present invention to inhibit Rho kinase activity can be determined in a 10 μl assay containing 40 mM Tris pH7.5, 20 mM MgCl2 0.1 mg/ml BSA, 50 μM DTT and 2.5 μM peptide substrate (Myelin Basic Protein) using an ADP-Glo kit (Promega). Compounds were dissolved in DMSO such that the final concentration of DMSO was 1% in the assay. All reactions/incubations are performed at 25° C. Compound (2 ul) and either Rho kinase 1 or 2 (4 μl) were mixed and incubated for 30 mins. Reactions were initiated by addition of ATP (4 μl) such that the final concentration of ATP in the assay was 10 μM. After a 1 hour incubation 10 μl of ADP-Glo Reagent was added and after a further 45 minute incubation 20 ul of Kinase Detection Buffer was added and the mixture incubated for a further 30 minutes. The luminescent signal was measured on a luminometer. […] Compounds were tested in dose-response format and the inhibition of kinase activity was calculated at each concentration of compound. To determine the IC50 (concentration of compound required to inhibit 50% of the enzyme activity) data were fit to a plot of % inhibition vs Log10 compound concentration using a sigmoidal fit with a variable slope and fixing the maximum to 100% and the minimum to 0%. To determine the Ki values the Cheng-Prusoff equation was utilized (Ki=IC50/(1+[S]/Km).

[2] = target: Rho kinase 2 (Homo sapiens, UniProt O75116); assay: as above; format: biochemical; conditions: 10 μM ATP, 25° C., read-out: ROCK2 inhibitory activity (Ki, range of activity)
Description: as §1

Chain of Rho kinase 1 (Q13464 whole entry): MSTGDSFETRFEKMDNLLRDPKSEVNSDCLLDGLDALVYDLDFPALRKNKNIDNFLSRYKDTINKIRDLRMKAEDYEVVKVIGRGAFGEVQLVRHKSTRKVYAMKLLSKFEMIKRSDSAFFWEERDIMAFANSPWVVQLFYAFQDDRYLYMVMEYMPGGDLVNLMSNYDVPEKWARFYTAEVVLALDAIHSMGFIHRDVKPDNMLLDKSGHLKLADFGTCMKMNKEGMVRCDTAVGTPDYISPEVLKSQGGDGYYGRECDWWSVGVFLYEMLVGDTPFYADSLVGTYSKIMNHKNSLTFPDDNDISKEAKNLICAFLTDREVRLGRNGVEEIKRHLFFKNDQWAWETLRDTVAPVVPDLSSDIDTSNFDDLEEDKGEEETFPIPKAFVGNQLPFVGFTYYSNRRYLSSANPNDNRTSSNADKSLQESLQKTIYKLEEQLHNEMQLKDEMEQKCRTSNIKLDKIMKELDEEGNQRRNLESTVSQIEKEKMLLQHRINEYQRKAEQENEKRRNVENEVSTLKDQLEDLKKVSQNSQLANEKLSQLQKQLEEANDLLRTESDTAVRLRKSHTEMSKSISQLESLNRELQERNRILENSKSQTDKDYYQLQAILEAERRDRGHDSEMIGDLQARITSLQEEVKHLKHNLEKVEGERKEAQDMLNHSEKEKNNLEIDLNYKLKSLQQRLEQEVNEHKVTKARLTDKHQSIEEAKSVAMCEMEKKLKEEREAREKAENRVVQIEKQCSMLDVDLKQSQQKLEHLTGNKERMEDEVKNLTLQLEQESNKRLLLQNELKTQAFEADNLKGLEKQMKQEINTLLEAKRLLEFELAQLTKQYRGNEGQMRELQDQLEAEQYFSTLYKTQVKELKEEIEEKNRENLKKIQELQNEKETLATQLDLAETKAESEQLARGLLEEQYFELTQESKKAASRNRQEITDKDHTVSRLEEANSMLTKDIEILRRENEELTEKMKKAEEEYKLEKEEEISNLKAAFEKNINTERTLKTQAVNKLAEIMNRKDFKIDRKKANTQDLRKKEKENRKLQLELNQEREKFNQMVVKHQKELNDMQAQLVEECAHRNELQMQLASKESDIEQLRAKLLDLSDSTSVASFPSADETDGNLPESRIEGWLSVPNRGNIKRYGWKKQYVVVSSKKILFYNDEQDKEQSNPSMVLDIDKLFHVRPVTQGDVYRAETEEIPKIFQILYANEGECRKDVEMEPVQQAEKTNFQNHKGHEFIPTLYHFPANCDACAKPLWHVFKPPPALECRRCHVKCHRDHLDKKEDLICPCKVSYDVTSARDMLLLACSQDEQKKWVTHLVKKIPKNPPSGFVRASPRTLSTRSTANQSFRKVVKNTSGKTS
Chain of Rho kinase 2 (O75116 whole entry): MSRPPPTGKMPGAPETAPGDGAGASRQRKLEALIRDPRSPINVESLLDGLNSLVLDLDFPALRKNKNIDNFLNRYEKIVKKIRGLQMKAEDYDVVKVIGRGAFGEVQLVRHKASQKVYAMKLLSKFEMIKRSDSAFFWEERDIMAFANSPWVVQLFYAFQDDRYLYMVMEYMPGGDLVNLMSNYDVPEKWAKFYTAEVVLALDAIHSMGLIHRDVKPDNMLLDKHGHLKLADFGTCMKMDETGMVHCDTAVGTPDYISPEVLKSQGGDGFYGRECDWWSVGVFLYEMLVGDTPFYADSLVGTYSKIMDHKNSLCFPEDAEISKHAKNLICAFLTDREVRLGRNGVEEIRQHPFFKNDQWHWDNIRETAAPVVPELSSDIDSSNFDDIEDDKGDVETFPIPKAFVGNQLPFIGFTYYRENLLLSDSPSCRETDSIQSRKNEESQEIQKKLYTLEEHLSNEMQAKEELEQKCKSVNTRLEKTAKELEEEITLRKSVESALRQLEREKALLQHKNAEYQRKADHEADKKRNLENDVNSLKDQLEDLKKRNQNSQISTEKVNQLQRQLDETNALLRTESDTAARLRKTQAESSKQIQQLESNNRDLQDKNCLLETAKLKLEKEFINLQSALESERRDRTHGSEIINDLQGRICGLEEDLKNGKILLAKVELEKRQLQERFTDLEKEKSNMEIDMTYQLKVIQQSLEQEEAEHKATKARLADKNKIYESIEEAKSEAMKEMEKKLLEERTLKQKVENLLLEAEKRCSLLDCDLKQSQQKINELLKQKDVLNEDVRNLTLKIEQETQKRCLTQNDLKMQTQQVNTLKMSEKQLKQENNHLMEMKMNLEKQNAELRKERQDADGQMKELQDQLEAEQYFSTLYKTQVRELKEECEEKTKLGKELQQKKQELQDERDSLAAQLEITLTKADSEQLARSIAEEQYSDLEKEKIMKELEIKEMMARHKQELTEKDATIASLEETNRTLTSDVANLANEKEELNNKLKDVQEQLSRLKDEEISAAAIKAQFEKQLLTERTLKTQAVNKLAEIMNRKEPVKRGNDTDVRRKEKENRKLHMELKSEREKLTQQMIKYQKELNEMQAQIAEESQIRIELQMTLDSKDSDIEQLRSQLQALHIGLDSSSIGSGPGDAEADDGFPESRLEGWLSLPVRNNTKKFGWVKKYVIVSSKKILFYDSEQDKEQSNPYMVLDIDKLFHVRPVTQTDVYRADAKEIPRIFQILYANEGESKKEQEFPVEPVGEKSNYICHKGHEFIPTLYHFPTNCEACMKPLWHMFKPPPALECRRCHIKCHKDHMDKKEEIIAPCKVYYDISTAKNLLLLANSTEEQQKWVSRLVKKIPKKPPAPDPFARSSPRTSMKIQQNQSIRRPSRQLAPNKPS

SMILES	Ki [1] [µM]	Ki [2] [µM]
CC1=C(C(=O)Nc2ccc3[nH]ncc3c2)C(c2ccc(C)cc2)n2nc(CO)cc2N1 (centres unmarked) [Example 67, 2-(hydroxymethyl)-N-(1H-indazol-5-yl)-5-methyl-7-(p-tolyl)-4,7-dihydropyrazolo[1,5-a]pyrimidine-6-carboxamide]	< 0.05	< 0.05
CC1=C(C(=O)Nc2ccc3cnccc3c2)C(c2ccc(C)c(F)c2F)n2nc(CN(C)C)cc2N1 (single isomer, unassigned) [Example 121b, 7-(2,3-difluoro-4-methylphenyl)-2-((dimethylamino)methyl)-N-(isoquinolin-6-yl)-5-methyl-4,7-dihydropyrazolo[1,5-a]pyrimidine-6-carboxamide]	< 0.05	< 0.05
CC1=C(C(=O)Nc2ccc3cnccc3c2)C(c2cnc(-c3ccccc3)s2)n2nc(CO)cc2N1 (centres unmarked) [Example 52, 2-(hydroxymethyl)-N-(isoquinolin-6-yl)-5-methyl-7-(2-phenylthiazol-5-yl)-4,7-dihydropyrazolo[1,5-a]pyrimidine-6-carboxamide]	< 0.05	< 0.05
CC1=C(C(=O)Nc2ccc3cnccc3c2)C(c2ccc(C(F)(F)F)c(F)c2)n2nc(C3CCN(C(=O)CCN4CCCCC4)CC3)cc2N1 (centres unmarked) [Example 135, 7-(3-fluoro-4-(trifluoromethyl)phenyl)-N-(isoquinolin-6-yl)-5-methyl-2-(1-(3-(piperidin-1-yl)propanoyl)piperidin-4-yl)-4,7-dihydropyrazolo[1,5-a]pyrimidine-6-carboxamide]	< 0.05	< 0.05
CC1=C(C(=O)Nc2ccc3cnccc3c2)C(c2ccc(C(F)(F)F)c(F)c2)n2nc(CO)cc2N1 (single isomer, unassigned) [Example 65B, 7-(3-fluoro-4-(trifluoromethyl)phenyl)-2-(hydroxymethyl)-N-(isoquinolin-6-yl)-5-methyl-4,7-dihydropyrazolo[1,5-a]pyrimidine-6-carboxamide]	< 0.05	< 0.05
CC1=C(C(=O)Nc2ccc3cnccc3c2)C(c2ccc(C(F)(F)F)c(F)c2F)n2nc(CN(C)C)cc2N1 (single isomer, unassigned) [Example 122b, 7-(2,3-difluoro-4-(trifluoromethyl)phenyl)-2-((dimethylamino)methyl)-N-(isoquinolin-6-yl)-5-methyl-4,7-dihydropyrazolo[1,5-a]pyrimidine-6-carboxamide]	< 0.05	< 0.05
CCOC(=O)c1cc2n(n1)C(c1ccc(Cl)cc1F)C(C(=O)Nc1ccc3[nH]ncc3c1)=C(C)N2 (single isomer, unassigned) [Example 7B, ethyl 6-((1H-indazol-5-yl)carbamoyl)-7-(4-chloro-2-fluorophenyl)-5-methyl-4,7-dihydropyrazolo[1,5-a]pyrimidine-2-carboxylate]	< 0.05	< 0.05
CC1=C(C(=O)Nc2ccc3[nH]ncc3c2)C(c2ccc(C(F)(F)F)c(F)c2)n2nnnc2N1 (single isomer, unassigned) [Example 25B, 7-(3-fluoro-4-(trifluoromethyl)phenyl)-N-(1H-indazol-5-yl)-5-methyl-4,7-dihydrotetrazolo[1,5-a]pyrimidine-6-carboxamide]	0.05 to 0.5	0.05 to 0.5
CC1=C(C(=O)Nc2ccc3cnccc3c2)C(C23CC4CC(CC(C4)C2)C3)n2nc(CO)cc2N1 (centres unmarked) [Example 48, 7-((3r,5r,7r)-adamantan-1-yl)-2-(hydroxymethyl)-N-(isoquinolin-6-yl)-5-methyl-4,7-dihydropyrazolo[1,5-a]pyrimidine-6-carboxamide]	0.05 to 0.5	0.05 to 0.5
CC1=C(C(=O)Nc2ccc3cnccc3c2)C(C2COc3ccccc3O2)n2nc(CO)cc2N1 (single isomer, unassigned) [Example 72A, 7-(2,3-dihydrobenzo[b][1,4]dioxin-2-yl)-2-(hydroxymethyl)-N-(isoquinolin-6-yl)-5-methyl-4,7-dihydropyrazolo[1,5-a]pyrimidine-6-carboxamide]	< 0.05	< 0.05
CC1=C(C(=O)Nc2ccc3cnccc3c2)C(c2ccc(C(F)(F)F)c(F)c2)n2nc(CN(C)CC3CCN(C)CC3)cc2N1 (single isomer, unassigned) [Example 104B, 7-(3-fluoro-4-(trifluoromethyl)phenyl)-N-(isoquinolin-6-yl)-5-methyl-2-((methyl((1-methylpiperidin-4-yl)methyl)amino)methyl)-4,7-dihydropyrazolo[1,5-a]pyrimidine-6-carboxamide]	0.05 to 0.5	< 0.05
COC1CCN(Cc2cc3n(n2)C(c2ccc(C(F)(F)F)c(F)c2)C(C(=O)Nc2ccc4cnccc4c2)=C(C)N3)CC1 (centres unmarked) [Example 99, 7-(3-fluoro-4-(trifluoromethyl)phenyl)-N-(isoquinolin-6-yl)-2-((4-methoxypiperidin-1-yl)methyl)-5-methyl-4,7-dihydropyrazolo[1,5-a]pyrimidine-6-carboxamide]	< 0.05	< 0.05
CC1=C(C(=O)Nc2ccc3cnccc3c2)C(c2ccc(C(F)(F)F)c(F)c2)n2nc(CN(C)C)cc2N1 (single isomer, unassigned) [Example 94B, 2-((dimethylamino)methyl)-7-(3-fluoro-4-(trifluoromethyl)phenyl)-N-(isoquinolin-6-yl)-5-methyl-4,7-dihydropyrazolo[1,5-a]pyrimidine-6-carboxamide]	< 0.05	< 0.05
CC1=C(C(=O)Nc2ccc3[nH]ncc3c2)C(c2ccc(C(F)(F)F)cc2F)n2nnnc2N1 (single isomer, unassigned) [Example 26A, 7-(2-fluoro-4-(trifluoromethyl)phenyl)-N-(1H-indazol-5-yl)-5-methyl-4,7-dihydrotetrazolo[1,5-a]pyrimidine-6-carboxamide]	< 0.05	< 0.05
CC1=C(C(=O)Nc2ccc3cnccc3c2)C(c2ccc(C(F)(F)F)c(F)c2)n2nc(NC(=O)CN3CCCC3)cc2N1 (single isomer, unassigned) [132B]	> 0.5	> 0.5
CC1=C(C(=O)Nc2ccc3[nH]ncc3c2)C(c2ccc(C(F)(F)F)c(F)c2)n2nnnc2N1 (single isomer, unassigned) [Example 25A, 7-(3-fluoro-4-(trifluoromethyl)phenyl)-N-(1H-indazol-5-yl)-5-methyl-4,7-dihydrotetrazolo[1,5-a]pyrimidine-6-carboxamide]	< 0.05	< 0.05
CC1=C(C(=O)Nc2ccc3cnccc3c2)C(c2ccc(C)c(F)c2)n2nc(NC(=O)CN3CCCC3)cc2N1 (centres unmarked) [Example 134, 7-(3-fluoro-4-methylphenyl)-N-(isoquinolin-6-yl)-5-methyl-2-(2-(pyrrolidin-1-yl)acetamido)-4,7-dihydropyrazolo[1,5-a]pyrimidine-6-carboxamide]	< 0.05	< 0.05
COc1ccc(-c2cc3n(n2)C(c2ccc(F)cc2)C(C(=O)Nc2ccc4[nH]ncc4c2)=C(C)N3)cc1 (centres unmarked) [Example 20, 7-(4-fluorophenyl)-N-(1H-indazol-5-yl)-2-(4-methoxyphenyl)-5-methyl-4,7-dihydropyrazolo[1,5-a]pyrimidine-6-carboxamide]	< 0.05	< 0.05
CC1=C(C(=O)Nc2ccc3cnccc3c2)C(c2ccc(C(F)(F)F)c(F)c2)n2nc(CN3CCCCC3)cc2N1 (single isomer, unassigned) [Example 97B, 7-(3-fluoro-4-(trifluoromethyl)phenyl)-N-(isoquinolin-6-yl)-5-methyl-2-(piperidin-1-ylmethyl)-4,7-dihydropyrazolo[1,5-a]pyrimidine-6-carboxamide]	< 0.05	< 0.05
CC1=C(C(=O)Nc2ccc3[nH]ncc3c2)C(c2ccc(F)cc2)n2ncc(C#N)c2N1 (centres unmarked) [Example 18, 3-cyano-7-(4-fluorophenyl)-N-(1H-indazol-5-yl)-5-methyl-4,7-dihydropyrazolo[1,5-a]pyrimidine-6-carboxamide]	< 0.05	< 0.05
CCOC(=O)c1cc2n(n1)C(c1ccc(C(F)(F)F)c(F)c1)C(C(=O)Nc1cc3ccncc3s1)=C(C)N2 (centres unmarked) [Example 42, ethyl 7-(3-fluoro-4-(trifluoromethyl)phenyl)-5-methyl-6-(thieno[2,3-c]pyridin-2-ylcarbamoyl)-4,7-dihydropyrazolo[1,5-a]pyrimidine-2-carboxylate]	< 0.05	< 0.05
CC1=C(C(=O)Nc2ccc3cnccc3c2)C(c2ccc(C(F)(F)F)c(F)c2)n2nc(C(=O)NCCN3CCCCC3)nc2N1 (single isomer, unassigned) [Example 129b, 7-(3-fluoro-4-(trifluoromethyl)phenyl)-N6-(isoquinolin-6-yl)-5-methyl-N2-(2-(piperidin-1-yl)ethyl)-4,7-dihydro-[1,2,4]triazolo[1,5-a]pyrimidine-2,6-dicarboxamide]	< 0.05	
CC1=C(C(=O)Nc2ccc3cnccc3c2)C(c2ccc(C(F)(F)F)c(F)c2)n2nc(NC(=O)CCN3CCCCC3)cc2N1 (single isomer, unassigned) [131B]		< 0.05
